From patent publication US20250009743A1, “METHODS OF TREATING CANCERS USING STING AGONISTS” (Dana-Farber Cancer Institute, Inc., priority 2021, published 2025)

Assays:
BP-sgControl tumors = experiment: BP-sgControl tumor growth and survival in FVB mice; type: in vivo, mouse; settings: DMXAA 10 mg/kg i.p. weekly; olaparib 50 mg/kg i.p. q.d.; FIG. 11G
Experimental: Primary mammary tumor cells for orthotopic injection were resuspended in serum-free DMEM containing 40% matrigel (Corning). 5×10^5 tumor cells in a total volume of 100 μL were injected orthotopically into the thoracic mammary fat pads of 8-week-old female FVB/NJ mice (The Jackson Laboratory). Tumor growth was examined by measuring the greatest longitudinal diameter (length) and the greatest transverse diameter (width) with digital calipers, and tumor volume was calculated by use of the modified ellipsoid formula (0.52×length×width2). Tumors were measured 2-3 times a week. All tumor measurements within single cohorts were performed by the same researcher. Tumor-bearing mice were randomized prior to start of treatment. Drug treatments were started when mean tumor volumes approximated 50-100 mm3. Mice were euthanized by CO2 inhalation when tumor volumes met humane endpoints described in the IACUC (20 mm diameter) protocols or upon severe health deterioration.
Olaparib (MedChem, #HY-10162) was prepared by diluting 100 mg/l mL stocks in DMSO with 10% (2-Hydroxypropyl)-β-cyclodextrin (HPCD, MedChem, #101103) in PBS and administered immediately after drug preparation by intraperitoneal (i.p.) injection at a dose of 50 mg/kg body weight daily. DMXAA (Sigma, #D5817) was reconstituted at 10 mg/mL in 7.5% NaHCO3(Gibco). […]

[1] = system: TAMs co-cultured with CD8^+ T cells; experiment: Co-culture of TAMs with CD8^+ T cells; type: cell-based, mouse; settings: TAMs pre-treated with MSA-2 33 μM, washed off; FIG. 34A
Experimental: Tumor associated macrophages (TAMs) were isolated from ETP tumors using a mouse CD11b^+ myeloid cell isolation kit (StemCell, #18970) and seeded in 48-well plate at the density of 1×10^5 cells/well, cultured in DMEM growth medium (DMEM+10% FBS+100 μg/mL penicillin-streptomycin) supplemented with 10 ng/ml mouse M-CSF (BioLegend, #576404) and allowed to adhere overnight. TAMs were then treated with or without MSA-2 at the concentration of 33 μM in the median mentioned above for 2 days. MSA-2 was washed off before coculturing TAM with CD8^+ T cells. Mouse CD8^+ T cells were isolated from spleens of FVB/NJ mice using a mouse CD8+ T cell isolation kit (StemCell, #19853) and seeded in the same 48-well plate at the density of 1×10^5 cells/well, cultured alone or cocultured with TAMs in RPMI 1640 supplemented with 10% FBS, 10 ng/ml mouse M-CSF (BioLegend, #576404), 0.055 mM 2-mercaptoethanol, 2 ng/ml IL-2 (Peprotech), 2.5 ng/ml IL-7 (Peprotech) and 50 ng/ml IL-15 (Peprotech) for 2 days. After that, T cells were collected for flow cytometry analysis.

[2] = system: ovarian PDXs DF86, DF101, DF118 and DF149; experiment: p-STAT3 (Y705) in PARPi-resistant ovarian PDX cells; type: cell-based, human; settings: 5 μM olaparib for 24 hours; FIG. 25B
Description: UWB1.289 and UWB1.289+BRCA1 were purchased from ATCC and cultured in epithelial complete growth medium (50% ATCC-formulated RPMI-1640 medium, 50% MEGM medium and 3% fetal bovine serum) as described previously (Ding et al., 2018, Cell Rep 25, 2972-2980.e2975). ID8-Brca^+/+ and ID8-Brca^−/− cells were previously generated by CRISPR-Cas9 technology. The ovarian cancer patient-derived tumor xenografts (PDX) were established at Dana-Farber Cancer Institute by intraperitoneally implanting tumor cells that isolated from patients' ascites into irradiated nude mice (Liu et al., 2017; Clinical cancer research: an official journal of the American Association for Cancer Research 23, 1263-1273). The established PDX models were maintained by intraperitoneally transplantation in NOD/SCID IL2Rgnull mice (NSG, The Jackson Laboratory). The ovarian PDX cells could be cultured in the epithelial complete growth medium for about 3 to 4 days for in vitro experiments.
Analysis of p-STAT3 and γ-H2AX (p-HA2X-Ser139) was performed according to a two-step protocol for intracellular phosphorylated signaling proteins (Thermo Fisher). Briefly, cells were incubated with LIVE/DEAD Fixable Aqua Dead Cell Stain for 30 min. […]

PBM tumor cells = experiment: Measurement of IC50 value in PBM tumor cells (CellTiter-Glo); type: cell-based; settings: Mus musculus; reference value for the PBM-R3 fold; 72 h
Experimental: Tumor cells were seeded in 96-well plates at a density of 2000-3000/well and allowed to adhere overnight. Cells were then exposed to appropriate concentrations of therapeutic agents (or vehicle control) with continuous exposure for 72 h. Growth inhibition was measured by CellTiter-Glo® 2.0 Cell Viability Assay from Promega according to manufactory's introduction. IC50 values were calculated using non-linear regression model (logarithmic inhibitor vs. normalized response-variable slope) in Graphpad Prism 9.

Compound: Cc1ccc2c(=O)c3cccc(CC(=O)O)c3oc2c1C [DMXAA, 5,6-dimethyl-xanthenone-4-acetic acid]
- BP-sgControl tumor growth (BP-sgControl tumors): no significant impact

Compound: COc1cc2cc(C(=O)CCC(=O)O)sc2cc1OC [MSA-2]
- TAM-mediated suppression of CD8^+ T cells (cytokine production) [1]: reversed TAM-mediated suppression of CD8^+ T cells

Compound: O=C(c1cc(Cc2n[nH]c(=O)c3ccccc23)ccc1F)N1CCN(C(=O)C2CC2)CC1 [olaparib]
- PDX cells with increased phosphorylation level STAT3 [2]: 3 out of 4
- IC50 (PBM tumor cells): 560 nM
